# Literature values as cited in patent US20170135934A1, “Mouth Rinse for Prevention of Periodontal Disease” (priority 2015, published 2017).
# Where two headings read alike, the source gives them in different places. Residues, ends and D or L forms follow the SMILES beside them.
# Columns and labels:
# rat lymphocytes = conditions: glutamine added to the medium
# [1] = test system: biopsies from normal human ileum, proximal colon and rectosigmoid colon; conditions: compared with saline
# [2] = test system: intestinal epithelial cell; conditions: heat shock at 43 degrees C.; concentrations higher than 1 mM
# [3] = healthy volunteers; for urinary losses of dipeptides: continuous infusion; for side effects: continuous infusion of supplemented amino acid solution
# [4] = patients, TPN over 5 days
# [5] = test system: intracellular glutamine pool; conditions: intravenous supply following cholecystectomy
urinary losses of dipeptides [3],peptide in plasma [4],SMILES,proliferation of rat lymphocytes (radioactive thymidine) (rat lymphocytes),crypt cell proliferation [1],percentage of floating cells [2],side effects [3],side effects [4],intracellular glutamine pool preserved [5]
–,–,NC(=O)CC[C@H](N)C(=O)O [glutamine],four-fold,equally stimulated crypt cell proliferation,dose dependent decrease,–,–,–
about 1 % of the given dose,not detectable,"C[C@H](N)C(=O)N[C@@H](CCC(N)=O)C(=O)O [AlaGln, L-Alanyl-L-gutamine] (H-Ala-Gln-OH)",–,equally stimulated crypt cell proliferation,–,not accompanied by any side effects,free of any side effects,91 % of postoperative value
about 1 % of the given dose,–,"NCC(=O)N[C@@H](CCC(N)=O)C(=O)O [GlyGln, glycyl-L glutamine, reference compound] (H-Gly-Gln-OH)",–,–,–,not accompanied by any side effects,–,–
